Data published in the supplement of paper PMC10307832.

How the values were obtained:
Test in all cases: relative viability (nuclei count vs DMSO), 5 days (fraction); higher = more cells survive
[1] = compound: CCn1c(-c2nonc2N)nc2cnc(Oc3cccc(NC(=O)c4ccc(OCCN5CCOCC5)cc4)c3)cc21 + O=C(CCCCCCC(=O)Nc1ccccc1)NO [Vorinostat] (partner 1 µM)
In short: (§1)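 A single step with final 0.05% Triton X-100, 1% formaldehyde and 1 ug/ml Hoechst fixed the cells and stained nuclei 5 days after treatment. Lung cancer cell lines in 1536-well plates had been treated by pin tool the day after seeding with one drug alone or a fixed anchor-drug dose plus five library-drug doses (not always all listed) in √10 steps, and nuclei were counted on 4× images. Relative viability is the ratio of nuclei in treated wells to nuclei in vehicle wells, taken as the median of duplicate plates.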

[2] = compound: CCn1c(-c2nonc2N)nc2cnc(Oc3cccc(NC(=O)c4ccc(OCCN5CCOCC5)cc4)c3)cc21 + C[C@]1(O)C[C@@H](c2nc(-c3ccc4ccc(-c5ccccc5)nc4c3)c3c(N)nccn32)C1 [Linsitinib] (partner 1 µM)
In short: as §1

[3] = compound: CCn1c(-c2nonc2N)nc2cnc(Oc3cccc(NC(=O)c4ccc(OCCN5CCOCC5)cc4)c3)cc21 + CC(=O)c1c(C)c2cnc(Nc3ccc(N4CCNCC4)cn3)nc2n(C2CCCC2)c1=O [Palbociclib] (partner 0.5 µM)
In short: as §1

Mirin + Linsitinib = compound: N=C1NC(=O)/C(=C/c2ccc(O)cc2)S1 [Mirin] + C[C@]1(O)C[C@@H](c2nc(-c3ccc4ccc(-c5ccccc5)nc4c3)c3c(N)nccn32)C1 [Linsitinib] (partner 1 µM)
In short: as §1

Cell Line	relative viability ([1]; first compound 0.04 µM)	relative viability ([1]; first compound 0.1265 µM)	relative viability ([1]; first compound 0.4 µM)	relative viability ([1]; first compound 1.265 µM)	relative viability ([1]; first compound 4 µM)	relative viability ([2]; first compound 0.04 µM)	relative viability ([2]; first compound 0.1265 µM)	relative viability ([2]; first compound 0.4 µM)	relative viability ([2]; first compound 1.265 µM)	relative viability ([2]; first compound 4 µM)	relative viability ([3]; first compound 0.04 µM)	relative viability ([3]; first compound 0.1265 µM)	relative viability ([3]; first compound 0.4 µM)	relative viability ([3]; first compound 1.265 µM)	relative viability ([3]; first compound 4 µM)	relative viability (Mirin + Linsitinib; first compound 0.25 µM)	relative viability (Mirin + Linsitinib; first compound 0.7906 µM)	relative viability (Mirin + Linsitinib; first compound 2.5 µM)	relative viability (Mirin + Linsitinib; first compound 7.906 µM)	relative viability (Mirin + Linsitinib; first compound 25 µM)
EKVX	0.786	0.365	0.757	0.513	0.647	1.42	1.02	1.08	0.813	0.976	0.566	0.368	0.365	0.348	0.329	1.11	0.959	1.03	0.933	1
NCI-H520	0.957	0.856	0.774	0.478	0.297	1.07	1.15	1.12	0.565	0.415	0.242	0.207	0.199	0.176	0.175	0.969	0.921	0.946	0.803	0.638
LCLC-97TM1	1.12	0.856	–	0.705	0.662	0.221	0.204	–	0.206	0.181	0.276	0.245	–	0.27	0.281	0.174	0.166	0.177	0.143	0.141
COR-L23	0.508	0.309	0.225	0.13	0.113	1	0.785	0.521	0.172	0.148	0.308	0.25	0.129	0.173	0.127	1.01	1.16	1.02	0.955	0.892
NCI-H1355	0.653	0.668	0.413	0.377	0.313	0.904	0.77	0.802	0.834	0.812	0.321	0.411	0.411	0.397	0.374	0.799	0.852	0.975	0.861	0.747
NCI-H1666	1.13	1.05	1.12	1.05	1.03	0.797	0.985	0.949	0.667	0.413	0.635	0.64	0.613	0.57	0.538	0.734	0.853	0.791	0.646	0.517
EPLC-272H	0.467	0.545	0.425	0.357	0.348	1.35	1.12	1.14	1.1	1.18	0.391	0.406	0.302	0.316	0.296	1.1	–	1.16	0.978	0.831
NCI-H1651	0.604	0.639	0.467	0.292	0.497	1.15	1.1	0.986	0.859	0.642	0.587	0.584	0.476	0.369	0.432	1.06	1.01	0.982	0.741	0.856
NCI-H2087	0.776	0.584	0.668	0.565	0.509	–	0.682	0.762	0.747	0.828	0.362	0.218	0.336	0.2	0.228	0.992	1.11	0.915	1.23	0.841
HCC-44	1.13	1.18	1.14	1.07	1.09	0.671	0.709	0.684	0.538	0.509	1.01	1.01	1.02	1.08	0.878	0.64	0.789	0.703	0.711	0.501
RERF-LC-KJ	0.762	0.728	0.589	0.409	0.521	1.06	0.976	0.877	0.721	0.637	1.1	1.08	0.969	0.655	0.678	0.962	0.908	0.88	0.896	0.913
LOU-NH91	1.06	0.824	0.661	0.529	0.548	1	0.748	0.744	0.632	0.611	0.508	0.476	0.502	0.422	0.421	0.956	–	1.01	0.936	1.04
PC-3 [JPC-3]	0.919	0.701	0.713	0.549	0.692	0.945	1	0.969	0.968	0.947	0.539	0.548	0.444	0.497	0.482	1.01	1.03	0.988	1.07	1.03
NCI-H2126	1.04	0.879	0.608	0.894	0.82	0.759	0.704	0.679	0.759	0.742	0.362	0.338	0.355	0.361	0.325	0.713	0.707	0.756	0.639	0.698
LU99A	0.583	0.376	0.3	0.427	0.384	0.56	0.458	0.507	0.539	0.565	0.502	0.399	0.392	0.405	0.392	0.515	0.472	0.508	0.46	0.421
BEN	0.566	0.544	0.371	0.349	0.402	0.931	0.935	0.799	0.311	0.313	0.473	0.469	0.472	0.77	0.441	0.821	1.37	0.973	0.809	0.502
